The values that follow come from PubChem BioAssay AID258 (DTP/NCI, 2004).

“And” between values parts separate entries of the source, which are not always exact repeats. Identical values can stand only once. Inconclusive results and toxic doses are left out.

For this assay, the system named is CD2F1 mice, L1210 leukemia sc, survival T/C. The assay is described as follows: NCI In Vivo Anticancer Drug Screen. Data for tumor model L1210 Leukemia (subcutaneous) in CD2F1 (CDF1) mice. As to conditions: endpoint: median survival time, higher = longer survival. The method, boiled down: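 T/C ratio: treated-group survival or tumor size over vehicle-control group measurement, in mice carrying transplanted tumors.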

For the compound `Nc1nc(=S)c2ncn(C3OC(CO)C(O)C3O)c2[nH]1` (configuration not stated), the T/C runs as follows: (dose: 6.0 mg/kg/injection, schedule: Q01DX Z (sc), vehicle: other) 177 % of control; (dose: 10.1 mg/kg/injection, schedule: Q01DX Z (sc), vehicle: other) 183 % of control; (dose: 16.9 mg/kg/injection, schedule: Q01DX Z (sc), vehicle: other) 155 % of control; (dose: 28.1 mg/kg/injection, schedule: Q01DX Z (sc), vehicle: other) 161 % of control; (dose: 46.8 mg/kg/injection, schedule: Q01DX Z (sc), vehicle: other) 155 % of control; (dose: 65.0 mg/kg/injection, schedule: Q01DX Z (sc), vehicle: other) 123 % of control. Also, the T/C is, setting by setting: (dose: 108.0 mg/kg/injection, schedule: Q01DX Z (sc), vehicle: other) 123 % of control; (dose: 180.0 mg/kg/injection, schedule: Q01DX Z (sc), vehicle: other) 114 % of control; (dose: 300.0 mg/kg/injection, schedule: Q01DX Z (sc), vehicle: other) 104 % of control.
As for `OC(CBr)C(O)C(O)C(O)CBr` (configuration not stated), the T/C is, setting by setting: (dose: 40.0 mg/kg/injection, schedule: Q01DX009 (ip), vehicle: saline) 103 % of control; (dose: 40.0 mg/kg/injection, schedule: Q01DX009 (sc), vehicle: saline + alcohol) 105 % of control; (dose: 40.0 mg/kg/injection, schedule: Q01DX009 (sc), vehicle: saline with Tween-80) 103 % of control; (dose: 80.0 mg/kg/injection, schedule: Q01DX009 (ip), vehicle: saline) 113 % of control; (dose: 80.0 mg/kg/injection, schedule: Q01DX009 (sc), vehicle: saline + alcohol) 116 % of control; (dose: 100.0 mg/kg/injection, schedule: Q01DX009 (ip), vehicle: saline with Tween-80) 100 % of control. The T/C was 103 % of control (dose: 100.0 mg/kg/injection, schedule: Q01DX009 (sc), vehicle: saline with Tween-80); 100 % of control (dose: 108.0 mg/kg/injection, schedule: Q01DX Z (sc), vehicle: carboxymethylcellulose (CMC)); 121 % of control (dose: 160.0 mg/kg/injection, schedule: Q01DX009 (sc), vehicle: saline + alcohol); 103 % of control (dose: 160.0 mg/kg/injection, schedule: Q01DX009 (sc), vehicle: saline with Tween-80); 103 % of control (dose: 200.0 mg/kg/injection, schedule: Q01DX009 (ip), vehicle: saline with Tween-80); 102 % of control (dose: 200.0 mg/kg/injection, schedule: Q01DX009 (sc), vehicle: saline with Tween-80). The T/C was 124 % of control (dose: 240.0 mg/kg/injection, schedule: Q01DX009 (ip), vehicle: saline with Tween-80); 100 % of control (dose: 300.0 mg/kg/injection, schedule: Q01DX Z (sc), vehicle: carboxymethylcellulose (CMC)); 109 % of control (dose: 320.0 mg/kg/injection, schedule: Q01DX009 (sc), vehicle: saline with Tween-80); 103 % of control (dose: 400.0 mg/kg/injection, schedule: Q01DX009 (ip), vehicle: saline with Tween-80); 110 % of control (dose: 400.0 mg/kg/injection, schedule: Q01DX009 (sc), vehicle: saline with Tween-80); 88 % of control (dose: 480.0 mg/kg/injection, schedule: Q01DX009 (ip), vehicle: saline with Tween-80). Further, the T/C runs as follows: (dose: 500.0 mg/kg/injection, schedule: Q01DX Z (sc), vehicle: carboxymethylcellulose (CMC)) 100 % of control; (dose: 640.0 mg/kg/injection, schedule: Q01DX009 (ip), vehicle: saline with Tween-80) 93 % of control; (dose: 640.0 mg/kg/injection, schedule: Q01DX009 (sc), vehicle: saline with Tween-80) 104 % of control; (dose: 800.0 mg/kg/injection, schedule: Q01DX009 (ip), vehicle: saline with Tween-80) 98 % of control; (dose: 800.0 mg/kg/injection, schedule: Q01DX009 (sc), vehicle: saline with Tween-80) 111 % of control; (dose: 960.0 mg/kg/injection, schedule: Q01DX009 (ip), vehicle: saline with Tween-80) 96 % of control.
`O=C/C(Br)=C(/Br)C(=O)O`: the T/C reads like this: (dose: 3.0 mg/kg/injection, schedule: Q01DX Z (sc), vehicle: other) 100 % of control; (dose: 5.0 mg/kg/injection, schedule: Q01DX Z (sc), vehicle: other) 100 % of control; (dose: 8.4 mg/kg/injection, schedule: Q01DX Z (sc), vehicle: other) 100 % of control; (dose: 14.0 mg/kg/injection, schedule: Q01DX Z (sc), vehicle: other) 100 % of control; (dose: 39.0 mg/kg/injection, schedule: Q01DX Z (sc), vehicle: other) 100 % of control.
For the compound `NS(=O)(=O)OCCCCCCCOS(N)(=O)=O`, the T/C runs as follows: (dose: 30.0 mg/kg/injection, schedule: Q01DX009 (ip), vehicle: saline with Tween-80) 124 % of control; (dose: 83.3 mg/kg/injection, schedule: Q01DX009 (ip), vehicle: saline with Tween-80) 179 % of control; (dose: 138.8 mg/kg/injection, schedule: Q01DX009 (ip), vehicle: saline with Tween-80) 118 % of control.
On to `COc1cccc2c1C(=O)c1c(O)c3c(c(O)c1C2=O)C[C@@](O)(C(=O)CO)C[C@@H]3OC1CC(N)C(O)C(C)O1` (some centres not stated), for which the T/C by setting is: (dose: 0.25 mg/kg/injection, schedule: Q01DX009 (ip), vehicle: saline) 101 % of control and 98 % of control; (dose: 0.25 mg/kg/injection, schedule: Q01DX009 (sc), vehicle: saline) 98 % of control; (dose: 0.5 mg/kg/injection, schedule: Q01DX009 (ip), vehicle: saline) 103 % of control and 107 % of control and 98 % of control; (dose: 0.5 mg/kg/injection, schedule: Q01DX009 (sc), vehicle: saline) 101 % of control; (dose: 1.0 mg/kg/injection, schedule: Q01DX009 (ip), vehicle: saline) 100 % of control and 106 % of control and 123 % of control; (dose: 1.0 mg/kg/injection, schedule: Q01DX009 (sc), vehicle: saline) 110 % of control. For the same compound, the T/C reads like this: (dose: 2.0 mg/kg/injection, schedule: Q01DX009 (ip), vehicle: saline) 111 % of control and 115 % of control and 123 % of control; (dose: 2.0 mg/kg/injection, schedule: Q01DX009 (sc), vehicle: saline) 117 % of control and 120 % of control; (dose: 2.5 mg/kg/injection, schedule: Q01DX009 (sc), vehicle: saline) 114 % of control; (dose: 3.0 mg/kg/injection, schedule: Q01DX009 (sc), vehicle: saline) 116 % of control; (dose: 3.5 mg/kg/injection, schedule: Q01DX009 (sc), vehicle: saline) 120 % of control; (dose: 4.0 mg/kg/injection, schedule: Q01DX009 (ip), vehicle: saline) 110 % of control and 92 % of control and 97 % of control. For the same compound, the T/C runs as follows: (dose: 5.0 mg/kg/injection, schedule: Q01DX009 (sc), vehicle: saline) 116 % of control; (dose: 6.0 mg/kg/injection, schedule: Q01DX009 (sc), vehicle: saline) 102 % of control; (dose: 8.0 mg/kg/injection, schedule: Q01DX009 (sc), vehicle: saline) 113 % of control and 89 % of control.
As to `Nc1nc2c(ncn2C2CC(O)C(CO)O2)c(=O)[nH]1` (configuration not stated), for the setting “dose: 31.0 mg/kg/injection, schedule: Q01DX Z (sc), vehicle: water”, the T/C is 100 % of control.
